{"source": "patent EP0139005A1", "about": "“ANTITUMOR COMPOSITION, METHOD FOR TREATING TUMOR, AND USE OF THE COMPOSITION FOR TREATING TUMOR” (Yoshitomi Pharmaceutical Industries, Ltd., priority 1982, dated 1984)", "key": {"experimental tumors": {"test_system": "experimental tumors", "details": "L. Nemeth et al., Arzneim.-Forsh./Drug Res. 28(II), 1119-1123 (1978); cited from earlier work"}, "L1210 leukemia [1]": {"test_system": "L1210 leukemia", "assay": "L1210 leukemia implanted intraperitoneally, i.p. treatment, survival (Experimental Example 3)", "assay_type": "in vivo, female CDF1 mice", "details": "for Average Survival Time / Life-Prolongation Ratio (%): once daily for seven days; for effectiveness against L1210 leukemia: i.p., all doses of Table 4", "procedure": "(§1) The life-prolongation ratio was calculated by the following scheme (the same scheme is applied to the subsequent experimental examples).\n(§2) Life-prolongation Ratio [formula] T : Average survival days of the treated group\n(§3) C : Average survival days of the control group\n(§4) Animals survived over 30 days or longer were estimated as 30-day survivors, and the cases where T/C equals to or greater than 125% were regarded as effective.\nA plurality of groups each consisting of five heads of female CDF1 mice (8 weeks old) were respectively implanted intraperitoneally with 10 cells of L1210 leukemia. After the next day of the implantation, Y-6430, ESCC and ESCC ethyl ester (hereinafter referred to ESCC-Et) in physiological saline were respectively administered once daily for seven days intraperitoneally, and the average survival days and life-prolongation ratios in each group were calculated.\n(§5) All the test animals died of tumor within 30 days."}, "P388 leukemia": {"test_system": "P388 leukemia", "assay": "P388 leukemia implanted intraperitoneally, survival (Experimental Example 2)", "assay_type": "in vivo, female CDF1 mice", "details": "for 30-day Survivors / Average Survival Time / Life-Prolongation Ratio (%): once daily for seven days", "procedure": "as §1, §2, §3, §4\nA plurality of groups each consisting of five heads of female CDF1 mice (7-8 weeks old) were respectively implanted intraperitoneally with 10^6 cells of P388 leukemia. After 24 hours, Y-6430 and ESCC were respectively administered once daily for seven days, and average survival days, life-prolongation ratios and 30-day survivors in each group were calculated."}, "L1210 leukemia [2]": {"test_system": "L1210 leukemia", "assay": "L1210 leukemia implanted intraperitoneally, oral or subcutaneous treatment, survival (Experimental Example 4)", "assay_type": "in vivo, female CDF1 mice", "details": "for Average Survival Time / Life-Prolongation Ratio (%): once daily for seven days", "procedure": "as §1, §2, §3, §4\nA plurality of groups each consisting of five female CDF1 mice (7-8 weeks old) were respectively implanted intraperitoneally with 10 cells of L1210 leukemia. After the next day of the implantation, the test animals were administered orally or subcutaneously once daily for seven days with Y-6430 or ESCC dissolved in physiological saline, and the average survival days and life-prolongation ratios in each group were calculated.\nas §5"}, "leukemia": {"test_system": "leukemia", "details": "R.H. Adamson, Nature 217, 751-752 (1968); cited from earlier work"}}, "data": [{"smiles": "CCNC(=O)SC[C@H](N)C(=O)O", "note": "[ESCC, S-ethylcarbamoyl-L-cysteine, reference compound]", "values": [{"measurement": "effect against experimental tumors", "setting": "experimental tumors", "value": "more excellent effect than S-carbamoyl-L-cysteine"}, {"measurement": "Average Survival Time", "setting": "L1210 leukemia [1]; 50 mg/kg/day i.p.", "value": 8.0, "unit": "days"}, {"measurement": "Life-Prolongation Ratio (%)", "setting": "L1210 leukemia [1]; 50 mg/kg/day i.p.", "value": 108, "unit": "%"}, {"measurement": "Average Survival Time", "setting": "L1210 leukemia [1]; 100 mg/kg/day i.p.", "value": 8.0, "unit": "days"}, {"measurement": "Life-Prolongation Ratio (%)", "setting": "L1210 leukemia [1]; 100 mg/kg/day i.p.", "value": 108, "unit": "%"}, {"measurement": "Average Survival Time", "setting": "L1210 leukemia [1]; 250 mg/kg/day i.p.", "value": 9.0, "unit": "days"}, {"measurement": "Life-Prolongation Ratio (%)", "setting": "L1210 leukemia [1]; 250 mg/kg/day i.p.", "value": 122, "unit": "%"}, {"measurement": "Average Survival Time", "setting": "L1210 leukemia [1]; 500 mg/kg/day i.p.", "value": 9.0, "unit": "days"}, {"measurement": "Life-Prolongation Ratio (%)", "setting": "L1210 leukemia [1]; 500 mg/kg/day i.p.", "value": 122, "unit": "%"}, {"measurement": "effectiveness against L1210 leukemia", "setting": "L1210 leukemia [1]", "value": "ineffective"}, {"measurement": "30-day Survivors", "setting": "P388 leukemia; 100 mg/kg/day p.o.", "value": "0/5"}, {"measurement": "Average Survival Time", "setting": "P388 leukemia; 100 mg/kg/day p.o.", "value": 10.2, "unit": "days"}, {"measurement": "Life-Prolongation Ratio (%)", "setting": "P388 leukemia; 100 mg/kg/day p.o.", "value": 102, "unit": "%"}, {"measurement": "30-day Survivors", "setting": "P388 leukemia; 250 mg/kg/day p.o.", "value": "0/5"}, {"measurement": "Average Survival Time", "setting": "P388 leukemia; 250 mg/kg/day p.o.", "value": 10.8, "unit": "days"}, {"measurement": "Life-Prolongation Ratio (%)", "setting": "P388 leukemia; 250 mg/kg/day p.o.", "value": 108, "unit": "%"}, {"measurement": "30-day Survivors", "setting": "P388 leukemia; 500 mg/kg/day p.o.", "value": "0/5"}, {"measurement": "Average Survival Time", "setting": "P388 leukemia; 500 mg/kg/day p.o.", "value": 10.8, "unit": "days"}, {"measurement": "Life-Prolongation Ratio (%)", "setting": "P388 leukemia; 500 mg/kg/day p.o.", "value": 108, "unit": "%"}, {"measurement": "30-day Survivors", "setting": "P388 leukemia; 1,000 mg/kg/day p.o.", "value": "0/5"}, {"measurement": "Average Survival Time", "setting": "P388 leukemia; 1,000 mg/kg/day p.o.", "value": 12.6, "unit": "days"}, {"measurement": "Life-Prolongation Ratio (%)", "setting": "P388 leukemia; 1,000 mg/kg/day p.o.", "value": 126, "unit": "%"}, {"measurement": "effectiveness against P388 leukemia", "setting": "P388 leukemia; summary of Tables 2 and 3, T/C equal to or greater than 125% regarded as effective", "value": "only slightly effective"}, {"measurement": "Average Survival Time", "setting": "L1210 leukemia [2]; 100 mg/kg/day s.c.", "value": 8.0, "unit": "days"}, {"measurement": "Life-Prolongation Ratio (%)", "setting": "L1210 leukemia [2]; 100 mg/kg/day s.c.", "value": 100, "unit": "%"}, {"measurement": "Average Survival Time", "setting": "L1210 leukemia [2]; 250 mg/kg/day s.c.", "value": 8.0, "unit": "days"}, {"measurement": "Life-Prolongation Ratio (%)", "setting": "L1210 leukemia [2]; 250 mg/kg/day s.c.", "value": 100, "unit": "%"}, {"measurement": "Average Survival Time", "setting": "L1210 leukemia [2]; 500 mg/kg/day p.o.", "value": 8.0, "unit": "days"}, {"measurement": "Life-Prolongation Ratio (%)", "setting": "L1210 leukemia [2]; 500 mg/kg/day p.o.", "value": 98, "unit": "%"}, {"measurement": "Average Survival Time", "setting": "L1210 leukemia [2]; 500 mg/kg/day s.c.", "value": 8.0, "unit": "days"}, {"measurement": "Life-Prolongation Ratio (%)", "setting": "L1210 leukemia [2]; 500 mg/kg/day s.c.", "value": 100, "unit": "%"}, {"measurement": "Average Survival Time", "setting": "L1210 leukemia [2]; 1,000 mg/kg/day p.o.", "value": 9.2, "unit": "days"}, {"measurement": "Life-Prolongation Ratio (%)", "setting": "L1210 leukemia [2]; 1,000 mg/kg/day p.o.", "value": 112, "unit": "%"}, {"measurement": "Average Survival Time", "setting": "L1210 leukemia [2]; 2,000 mg/kg/day p.o.", "value": 9.6, "unit": "days"}, {"measurement": "Life-Prolongation Ratio (%)", "setting": "L1210 leukemia [2]; 2,000 mg/kg/day p.o.", "value": 117, "unit": "%"}, {"measurement": "effectiveness against L1210 leukemia", "setting": "L1210 leukemia [2]; oral and subcutaneous administration", "value": "ineffective"}]}, {"smiles": "CCNC(=O)SC[C@H](N)C(=O)OCC", "note": "[ESCC-Et, ESCC ethyl ester]", "values": [{"measurement": "Average Survival Time", "setting": "L1210 leukemia [1]; 50 mg/kg/day i.p.", "value": 8.2, "unit": "days"}, {"measurement": "Life-Prolongation Ratio (%)", "setting": "L1210 leukemia [1]; 50 mg/kg/day i.p.", "value": 103, "unit": "%"}, {"measurement": "Average Survival Time", "setting": "L1210 leukemia [1]; 100 mg/kg/day i.p.", "value": 8.4, "unit": "days"}, {"measurement": "Life-Prolongation Ratio (%)", "setting": "L1210 leukemia [1]; 100 mg/kg/day i.p.", "value": 105, "unit": "%"}, {"measurement": "Average Survival Time", "setting": "L1210 leukemia [1]; 250 mg/kg/day i.p.", "value": 9.0, "unit": "days"}, {"measurement": "Life-Prolongation Ratio (%)", "setting": "L1210 leukemia [1]; 250 mg/kg/day i.p.", "value": 113, "unit": "%"}, {"measurement": "Average Survival Time", "setting": "L1210 leukemia [1]; 500 mg/kg/day i.p.", "value": 9.0, "unit": "days"}, {"measurement": "Life-Prolongation Ratio (%)", "setting": "L1210 leukemia [1]; 500 mg/kg/day i.p.", "value": 113, "unit": "%"}, {"measurement": "effectiveness against L1210 leukemia", "setting": "L1210 leukemia [1]", "value": "ineffective"}]}, {"smiles": "NC(=O)SC[C@H](N)C(=O)O", "note": "[S-carbamoyl-L-cysteine]", "values": [{"measurement": "effectiveness against leukemia in mice", "setting": "leukemia", "value": "effective"}]}]}
